Measured values taken from patent US20230277582A1, “TREATMENT OF PRIMARY AND/OR SECONDARY LUNG TUMORS USING GASEOUS NITRIC OXIDE INHALATION” (Beyond Air, Inc., priority 2020, published 2023).
Where two headings read alike, the source gives them in different places.

Columns and labels:
[1] = system: CT26 colon cancer cells; experiment: In vitro NO treatment, cell viability by XTT assay, CT26; type: cell-based, mouse
Procedure: (§1) 10,000-20,000 cells from a cancer cell line were plated onto a 96-well plate. After an overnight incubation at 37° C. and 5% CO2, the cell culture medium was removed, and the plate was placed inside an exposure chamber made of acrylic glass, which was closed and sealed with paraffin wax tape. A gas delivery line was inserted from the top of the chamber. NO supplied from 800 ppm NO cylinders, as well as air and oxygen, were delivered to the chamber at a gas flow rate of 1 liter per minute. NO was diluted to the indicated concentration and the final oxygen concentration inside the chamber was adjusted to about 21%, to avoid cell death due to lack of oxygen. Gas exposure lasted for the indicated time period, for one to seven exposure cycles. Gas exchange during this time was permitted via an outlet hole located close to the bottom of the chamber. Cancer cells exposed to air served as a control group. Cell viability was determined using an XTT (2,3-bis-(2-methoxy-4-nitro-5-sulfophenyl)-2H-tetrazolium-5-carboxanilide) assay, whereby conversion of the XTT by viable cells to the corresponding formazan dye was quantified by spectrophotometry.
CT26 colon cancer cells (a mouse colon cancer line) were grown in 100 μl RPMI (Roswell Park Memorial Institute medium)-based tissue culture medium, supplemented with 1% streptomycin-penicillin and 10% fetal bovine serum, and plated 1 day before exposure to NO in 10 ml RPMI-based tissue culture medium; and then exposed to 400 ppm NO for 1 hour, or to 200 ppm NO for one or more cycles of 15 minutes (separated by 30 minutes of rest at 37° C.), using the procedures described hereinabove. Immediately after each exposure, 100 μl of the abovementioned supplemented RPMI-based tissue culture medium was added to each well and plated were stored at 37° C. and 5% CO2.
CT26 colon cancer cells were exposed to 1 μM of the chemotherapeutic agent 5-fluorouracil (5FU), in addition to 200 ppm NO for 30 minutes, using the procedures described hereinabove, except that after overnight incubation at 37° C. and 5% CO2, the 5FU was added to the cell culture medium, and the cells were subjected to a second overnight incubation prior to being placed within the exposure chamber, as described therein.
In another experiment, CT26 cells were exposed to 0.5-50 μM 5FU and 4 cycles of 200 ppm NO for 10 minutes (separated by 30 minutes of rest at 37° C.), using the procedures described hereinabove, except that the 5FU was added immediately after the last exposure to NO (or air), followed by incubation for about 24 hours.

[2] = system: healthy dogs; experiment: Safety study of intermittent NO inhalation in healthy dogs; type: in vivo, dog; conditions: 250-400 ppm NO, 30 days
Procedure: (§2) The effect of intermittent inhalation of NO at a concentration of 250-400 ppm was tested for 30 days in healthy dogs and for 12 days in healthy rats.

[3] = system: healthy rats; experiment: Safety study of intermittent NO inhalation in healthy rats; type: in vivo, rat; conditions: 250-400 ppm NO, 12 days
Procedure: as §2

[4] = system: LLC1 lung cancer cells; experiment: In vitro NO treatment, cell viability by XTT assay, LLC1; type: cell-based; conditions: Mus musculus, read-out: LLC1 cells not viable
Procedure: as §1
Furthermore, LLC1 lung cancer cells (a mouse lung cancer line) were exposed to 200 ppm NO for 15 or 30 minutes, using the procedures described hereinabove.

[5] = system: S. aureus; conditions: 200 ppm gNO; cited from earlier work
[6] = system: human fibroblast, keratinocyte, endothelial, monocyte and macrophage cells; conditions: 200 ppm gNO; cited from earlier work

Compound | effect on CT26 cells (viability) ([1]; 1 μM 5FU alone, overnight incubation (FIG. 4)) | macroscopic or microscopic effect of NO inhalation [2] | macroscopic or microscopic effect of NO inhalation [3] | CT26 cell viability ([1]; 400 ppm NO for 1 hour (FIG. 1)) | cytotoxicity at 200 ppm ([1]; Mus musculus, CT26, 0.5 h, read-out: reduction of CT26 cell viability) [%] | viability at 200 ppm ([1]; Mus musculus, CT26, read-out: CT26 cell viability (decreased to)) [%] | CT26 cell viability ([1]; seven cycles of 15 minutes, 200 ppm NO, compared to four cycles (FIG. 2C)) | CT26 cell viability ([1]; single 15 minute exposure to 200 ppm NO (FIG. 2A)) | cytotoxicity at 200 ppm ([4]; LLC1, 0.25 h, 200 ppm NO for 15 minutes (FIG. 3)) [%] | cytotoxicity at 200 ppm ([4]; LLC1, 0.5 h, 200 ppm NO for 30 minutes (FIG. 3)) [%] | S. aureus burden in rabbit wound model [5] | cytotoxicity to human cells in culture [6]
O=c1[nH]cc(F)c(=O)[nH]1 [5FU, 5-fluorouracil] | little effect | – | – | – | – | – | – | – | – | – | – | –
[N]=O [NO, nitric oxide] | – | No macroscopic or microscopic effect | No macroscopic or microscopic effect | not viable | 51 | ~40 | did not produce an additional reduction in viability | little effect | 41 | 65 | reduced S. aureus burden | without being cytotoxic
